# Results as given in PMC6540952 (Chemical Science, 2019).
# Biological target: IP6K1 (Homo sapiens, UniProt Q92551)
# Experiment: NMR kinase activity assay with [[…]6]InsP6, […] ATP
# Assay type: biochemical
# Chain of IP6K1 (Q92551 whole entry): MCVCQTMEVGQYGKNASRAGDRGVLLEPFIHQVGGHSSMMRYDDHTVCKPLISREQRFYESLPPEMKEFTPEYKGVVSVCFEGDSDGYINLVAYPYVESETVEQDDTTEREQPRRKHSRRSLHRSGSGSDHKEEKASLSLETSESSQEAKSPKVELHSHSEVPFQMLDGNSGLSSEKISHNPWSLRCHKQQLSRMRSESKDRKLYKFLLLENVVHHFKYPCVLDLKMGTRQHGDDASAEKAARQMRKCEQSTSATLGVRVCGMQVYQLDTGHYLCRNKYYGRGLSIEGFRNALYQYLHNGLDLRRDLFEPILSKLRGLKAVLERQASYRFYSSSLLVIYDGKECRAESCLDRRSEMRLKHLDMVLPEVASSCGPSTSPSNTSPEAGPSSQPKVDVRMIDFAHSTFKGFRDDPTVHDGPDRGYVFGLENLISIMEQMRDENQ
structure (smiles),measurement,value
O=[N+]([O-])c1ccc(CNc2nc(NCc3cccc(C(F)(F)F)c3)nc3[nH]cnc23)cc1 [TNP],IC50,2250 nM
